Data on 17 molecules can be found in paper PMC8131363 (Scientific Reports, 2021).

pEC50: −log10 of the molar value. Where two headings read alike, the source gives them in different places. Starred links: 1 amine or outer side, 2 acyl side, 3 side chain; linkers in the order of their positions; H or OH if unused. Non-standard residues stand in square brackets, D forms with d. No end group written: not given here. γGlu = O=C(O)[C@H](CCC(=O)[*:2])N[*:1]; βAsp = O=C(O)[C@H](CC(=O)[*:2])N[*:1]

For orientation: EC50 means the concentration giving half of the maximal effect.

The target of test [1] is domestic cat Calcium Sensing Receptor (cCaSR) (Felis catus).
Test [2] has as its target T1, cCaSR (Felis catus, UniProt C7FF08).
T1 sequence (C7FF08 1-1081): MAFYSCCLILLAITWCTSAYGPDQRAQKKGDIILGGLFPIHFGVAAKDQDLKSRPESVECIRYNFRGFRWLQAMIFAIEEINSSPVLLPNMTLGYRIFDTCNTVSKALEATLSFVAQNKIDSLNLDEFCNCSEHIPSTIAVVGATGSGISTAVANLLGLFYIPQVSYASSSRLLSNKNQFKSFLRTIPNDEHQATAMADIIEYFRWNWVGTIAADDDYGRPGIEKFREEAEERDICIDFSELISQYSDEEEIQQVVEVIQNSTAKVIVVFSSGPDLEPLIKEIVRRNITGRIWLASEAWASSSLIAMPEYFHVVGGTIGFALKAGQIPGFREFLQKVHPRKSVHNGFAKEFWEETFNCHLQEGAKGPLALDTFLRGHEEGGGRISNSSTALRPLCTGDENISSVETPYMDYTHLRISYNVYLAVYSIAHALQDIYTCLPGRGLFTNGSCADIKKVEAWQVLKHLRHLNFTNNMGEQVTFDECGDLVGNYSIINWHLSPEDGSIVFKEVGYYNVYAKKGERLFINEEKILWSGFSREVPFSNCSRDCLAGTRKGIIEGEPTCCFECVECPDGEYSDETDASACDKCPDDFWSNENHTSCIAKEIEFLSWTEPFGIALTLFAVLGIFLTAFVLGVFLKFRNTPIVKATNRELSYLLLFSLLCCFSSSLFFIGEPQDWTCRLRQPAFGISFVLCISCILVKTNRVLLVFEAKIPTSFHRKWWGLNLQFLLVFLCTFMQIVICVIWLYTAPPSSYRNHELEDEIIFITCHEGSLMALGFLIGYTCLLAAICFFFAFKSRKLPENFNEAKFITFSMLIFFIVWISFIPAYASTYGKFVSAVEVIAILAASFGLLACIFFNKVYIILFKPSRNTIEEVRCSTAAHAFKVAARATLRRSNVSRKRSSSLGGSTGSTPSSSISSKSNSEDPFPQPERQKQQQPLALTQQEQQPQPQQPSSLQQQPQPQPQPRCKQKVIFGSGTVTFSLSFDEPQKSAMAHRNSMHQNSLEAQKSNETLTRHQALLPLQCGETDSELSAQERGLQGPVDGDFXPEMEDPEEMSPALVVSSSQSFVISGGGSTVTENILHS
Put plainly: cCaSR PAM luminescence assay, double injection with 0.5 mM CaCl2, HEK293/T-REx/natClytin-cCaSR. The following applies: Supplementary Table I, PAM assay, dash = no activity.

For test [3], the target named is T1, cCaSR. Put plainly: cCaSR transiently expressed in HEK293/natClytin, agonist luminescence assay. It is filed as cell-based. The following applies: transiently expressed cCaSR; for pEC50: > 3 mM = maximal response not reached, read-out: cCaSR EC50. As to the method:
(§1) The coding sequence of the Felis catus[52] and Homo sapiens[53] CaSR gene was synthesised by GeneArt (Thermo Fisher Scientific). The cat coding sequence was excised from the GeneArt construct and inserted in pcDNA3.1 for constitutive and transient expression or pcDNA5/ TO for inducible expression. For the human sequence the pcDNA6 vector as delivered by GeneArt was used without further sub-cloning.
(§2) All transient transfections were performed with Lipofectamine 2000 (Invitrogen) according to the manufacturer’s protocol.

In a further test the target is T2, hCaSR (Homo sapiens, UniProt P41180).
T2 construct: expressed in transfected cells; host or cells: HEK293/natClytin (transient, pcDNA6 as delivered by GeneArt)
T2 sequence (P41180 20-1078): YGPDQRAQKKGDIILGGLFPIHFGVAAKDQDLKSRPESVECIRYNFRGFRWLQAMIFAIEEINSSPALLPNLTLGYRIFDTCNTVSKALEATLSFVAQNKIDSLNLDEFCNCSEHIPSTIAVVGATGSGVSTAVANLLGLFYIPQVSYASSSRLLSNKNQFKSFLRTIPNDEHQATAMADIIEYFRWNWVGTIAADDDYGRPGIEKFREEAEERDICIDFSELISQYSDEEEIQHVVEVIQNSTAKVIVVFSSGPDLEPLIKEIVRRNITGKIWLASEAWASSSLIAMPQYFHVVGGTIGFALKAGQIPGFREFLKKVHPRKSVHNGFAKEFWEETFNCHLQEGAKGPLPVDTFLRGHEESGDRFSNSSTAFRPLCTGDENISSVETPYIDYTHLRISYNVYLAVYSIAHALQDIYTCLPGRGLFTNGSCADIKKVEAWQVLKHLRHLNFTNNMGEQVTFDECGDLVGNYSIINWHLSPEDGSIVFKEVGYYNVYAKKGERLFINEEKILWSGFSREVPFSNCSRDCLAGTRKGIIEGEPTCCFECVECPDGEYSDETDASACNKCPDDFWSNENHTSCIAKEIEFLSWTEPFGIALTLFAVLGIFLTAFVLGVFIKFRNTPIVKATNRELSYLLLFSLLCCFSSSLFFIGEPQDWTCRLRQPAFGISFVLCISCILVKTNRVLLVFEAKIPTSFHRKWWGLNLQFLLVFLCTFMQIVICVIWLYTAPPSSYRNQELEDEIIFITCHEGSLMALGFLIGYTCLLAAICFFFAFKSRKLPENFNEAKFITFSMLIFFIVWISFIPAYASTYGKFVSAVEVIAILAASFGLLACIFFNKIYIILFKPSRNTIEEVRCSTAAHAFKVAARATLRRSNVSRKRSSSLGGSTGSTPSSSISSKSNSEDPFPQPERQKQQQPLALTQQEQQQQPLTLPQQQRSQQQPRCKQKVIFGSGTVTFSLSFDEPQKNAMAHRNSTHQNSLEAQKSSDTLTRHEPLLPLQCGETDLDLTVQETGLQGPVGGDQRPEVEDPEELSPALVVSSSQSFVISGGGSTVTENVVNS
Nature of the test: hCaSR transiently expressed in HEK293/natClytin, agonist luminescence assay. It counts as cell-based. The following applies: transiently expressed hCaSR; for pEC50: > 3 mM = maximal response not reached, read-out: hCaSR EC50. As for the experimental part: as §1, §2

Test [4] deals with T1, cCaSR. The following applies: for pEC50: agonist assay.
In test [5] the target is T1, cCaSR. Nature of the test: cell-based.
[6] abbreviates: cCaSR activity, agonist assay, stable inducible cCaSR line, at least three wells.
Where [7] appears, read: cCaSR stable EC50(mM), stably expressed cCaSR, Fig. 6b, > 3 mM = maximal response not reached.
The mark [8] stands for this setting: EC50 (M), agonist assay, stable inducible cCaSR line, > 0.01 M = maximal response not reached.

In the case of [γGlu]-Val, the EC50 of agonist activity, luminescence (natClytin) in HEK T-Rex/natClytin cells inducibly expressing cCaSR, calcium-free buffer; activity grade ++ in test [1] was 4.52 mM.
On to Poly-L-arginine, for which the “EC50 PAM (M)” value on cCaSR [2] was “-”. For the same molecule, the “cCaSR EC50” value at cCaSR [3] was 2.9 µg/mL. The “hCaSR EC50” value at hCaSR worked out at 2.5 µg/mL. The “cCaSR stable EC50” value at cCaSR [4] came out at 8.0 µg/mL. Moreover, the pEC50 on cCaSR [4] (stable inducible cCaSR line, > 0.01 M = maximal response not reached) is 5.99; at cCaSR [4] (read-out: EC50 Ago, Supplementary Table I, > 0.01 M = maximal response not reached), 5.99; on cCaSR [4] (read-out: cCaSR activity, stable inducible cCaSR line, at least three wells), more than 3.00.
Consider [βAsp]-Phe, for which the EC50 of agonist activity, luminescence (natClytin) in HEK T-Rex/natClytin cells inducibly expressing cCaSR, calcium-free buffer; activity grade + in test [1] is more than 10 mM.
Turning to [γGlu]-Tyr, the EC50 of agonist activity, luminescence (natClytin) in HEK T-Rex/natClytin cells inducibly expressing cCaSR, calcium-free buffer; activity grade ++ in test [1] was found to be 3.88 mM.
Still for that read-out and setting: with Glutathione (peptide) the figure was 6.39 mM.
For S-(2-Hydroxyethyl)glutathione (peptide), the EC50 of agonist activity, luminescence (natClytin) in HEK T-Rex/natClytin cells inducibly expressing cCaSR, calcium-free buffer; activity grade ++ in test [1] stood at 2.11 mM.
Turning to [γGlu]-Ala, the EC50 of agonist activity, luminescence (natClytin) in HEK T-Rex/natClytin cells inducibly expressing cCaSR, calcium-free buffer; activity grade + in test [1] is more than 10 mM.
Turning to `C[C@H](NC(=O)CC[C@H](N)C(=O)O)C(=O)O` [γ-Glu-Ala], the “EC50 PAM (M)” value on cCaSR [2] is given as “-”. Also, the pEC50 on cCaSR [3] was less than 2.52; on hCaSR, less than 2.52; on cCaSR [5] (EC50 Value (heat map Fig. 5), cCaSR agonists, heat map) it was 2.53; at cCaSR [5] (setting [6]) it was less than 2.00. The EC50 on cCaSR [5] (setting [7]) was more than 3 mM.
On to γ-D-Glu-Trp (peptide), for which the EC50 of agonist activity, luminescence (natClytin) in HEK T-Rex/natClytin cells inducibly expressing cCaSR, calcium-free buffer; activity grade ++ in test [1] turned out to be 4.2 mM.
Regarding [βAsp]-Leu, in test [1], the EC50 of agonist activity, luminescence (natClytin) in HEK T-Rex/natClytin cells inducibly expressing cCaSR, calcium-free buffer; activity grade + turned out to be 3.15 mM.
`CC(C)[C@H](NC(=O)CC[C@H](N)C(=O)O)C(=O)O` [γ-Glu-Val]: the “EC50 PAM (M)” value on cCaSR [2] is on record as “-”. Also, the pEC50 was less than 2.52 on cCaSR [3], less than 2.52 at hCaSR and 2.00 to 3.00 at cCaSR [5] (setting [6]). The concentration for a half-maximal effect (EC50) at cCaSR [5] (setting [8]) was 4.52 mM; on cCaSR [5] (EC50 Ago (M), Supplementary Table I, agonist assay, > 0.01 M = maximal response not reached), 4.52 mM; on cCaSR [5] (setting [7]) it was more than 3 mM.
With [γGlu]-Met, the EC50 of agonist activity, luminescence (natClytin) in HEK T-Rex/natClytin cells inducibly expressing cCaSR, calcium-free buffer; activity grade + in test [1] is more than 10 mM.
For the molecule `CC(C)[C@H](NC(=O)CC[C@H](N)C(=O)O)C(=O)NCC(=O)O` [γ-Glu-Val-Gly], on cCaSR [2], the “EC50 PAM (M)” value was “-”. Moreover, the pEC50 on cCaSR [3] is 2.44; on hCaSR, 2.39. Moreover, the values for the EC50 on cCaSR [5] (setting [8]) and on cCaSR [5] (setting [7]) were 4.22 mM and 6.9 mM, respectively.
Turning to [γGlu]-Cys, the EC50 of agonist activity, luminescence (natClytin) in HEK T-Rex/natClytin cells inducibly expressing cCaSR, calcium-free buffer; activity grade + in test [1] is more than 10 mM.
Still for that read-out and setting: with [βAsp]-Gly the figure was more than 10 mM.
With [γGlu]-Glu, the EC50 of agonist activity, luminescence (natClytin) in HEK T-Rex/natClytin cells inducibly expressing cCaSR, calcium-free buffer; activity grade ++ in test [1] stood at 2.07 mM.
Regarding [βAsp]-Ala, the EC50 of agonist activity, luminescence (natClytin) in HEK T-Rex/natClytin cells inducibly expressing cCaSR, calcium-free buffer; activity grade + in test [1] is more than 10 mM.
